Holding throughout (type): cell-based
The test system of assay [1] is human hair follicle dermal papilla cells. The assay can be described thus: β-catenin movement from cytoplasm to nucleus, western blotting of nuclear extract. Conditions: peptide 0.5 uM, 5 uM or 50 uM, 1 day, serum-free medium; western blot; FIG. 1. On the procedure:
The promoting effect of the peptide consisting of the amino acid sequence of SEQ ID NO: 1 on the proliferation of hair follicle cells was to be confirmed. In detail, human hair follicle dermal papilla cells were seeded in a 96-well plate at a density of 4×10^5 cells/well, and cultured for 16 hours. The culture medium was replaced with a serum-free medium, and the peptide was added thereto at a concentration of 0.5 uM, 5 uM, or 50 uM, and the cells were cultured for 1 day. Here, as a positive control group, 5 uM of Minoxidil which is used as a hair loss treatment was treated. The cells were harvested and nuclei thereof were isolated by using a nuclear protein extraction kit (Merck, USA). Then, western blotting was performed with respect to β-catenin which is a factor related to proliferation of the dermal papilla cells by using β-catenin antibodies (Santacruz biotechnology, USA).

Assay [2] deals with human dermal papilla cells. The assay can be described thus: PCR expression of Lef-1, Cyclin D1 and c-Myc (activity of dermal papilla cells). Particulars: peptide 0.5 uM, 5 uM or 50 uM, 1 day, serum-free medium, FIG. 2. The method, then: (§1) The promoting effect of the peptide consisting of the amino acid sequence of SEQ ID NO: 1 on the activity of hair follicle cells was to be confirmed. In detail, human dermal papilla cells were seeded in a 96-well plate at a density of 4×10^5 cells/well, and cultured for 16 hours. The culture medium was replaced with a serum-free medium, and the peptide was added thereto at a concentration of 0.5 uM, 5 uM, or 50 uM, and the cells were cultured for 1 day. Here, as a positive control group, 5 uM of Minoxidil was treated. After the cells were harvested, RNA was extracted therefrom and used for synthesis of cDNA by using a cDNA synthesis kit and PCR pre-mix (Intron, Korea).

The test system of assay [3] is human dermal papilla cells. The assay can be described thus: PCR expression of growth factors VEGF, bFGF, KGF and HGF. Conditions: peptide 0.5 uM, 5 uM or 50 uM, 1 day, serum-free medium, FIG. 3. The method, then: as §1, with “activity of a growth factor” for “activity”, “of cNDA” for “of cDNA”, “PCR pre-mix.” for “PCR pre-mix (Intron, Korea).”
In assay [4] the test system is human dermal papilla cells. Description: Western blotting of apoptosis-related proteins Bax, Cleaved PARP-1, Cleaved Caspase-3, Bcl2. Particulars: peptide 0.5 uM, 5 uM or 50 uM, 1 day, serum-free medium; western blot; FIG. 4. The method, then: The inhibitory effect of the peptide consisting of the amino acid sequence of SEQ ID NO: 1 on the control of expression of apoptosis-related proteins of hair follicle cells was to be confirmed. In detail, human dermal papilla cells were seeded in a 96-well plate at a density of 4×10^5 cells/well, and cultured for 16 hours. The culture medium was replaced with a serum-free medium, and the peptide was added thereto at a concentration of 0.5 uM, 5 uM, or 50 uM, and the cells were cultured for 1 day. Here, as a positive control group, 5 uM of Minoxidil was treated. Cell lysates were prepared by harvesting the cell, and then, western blotting was performed with respect to Bax, Cleaved PARP-1, Cleaved Caspase-3, or Bcl2 by using Bax antibodies, Cleaved PARP-1 antibodies, Cleaved Caspase-3 antibodies, or Bcl2 antibodies (Santacruz biotechnology, USA), respectively.

The test system of assay [5] is human dermal papilla cells. The assay can be described thus: PCR expression of DKK-1 under DHT stimulation. Conditions: DHT 10 ug/ml as stimulator, peptide 0.5 uM, 5 uM or 50 uM, 1 day, serum-free medium, FIG. 5. On the procedure:
The inhibitory effect of the peptide consisting of the amino acid sequence of SEQ ID NO: 1 on the expression of DKK-1, which is a hair loss-related factor, in hair follicle cells was to be confirmed. In detail, human dermal papilla cells were seeded in a 96-well plate at a density of 4×10^5 cells/well, and cultured for 16 hours. After the culture medium was replaced with a serum-free medium, dihydrotestosterone (DHT) as a stimulator was added thereto at a concentration of 10 ug/ml while peptide was added thereto at a concentration of 0.5 uM, 5 uM, or 50 uM. Then, the cells were cultured for 1 day. As a positive control, 50 uM of Finasteride which is a drug inhibiting male hormones was treated. Here, DHT is known as a hair loss hormone that increases the expression of DKK-1, which is a hair loss-inducible factor, by activating an androgen receptor. After the cells were harvested, RNA was extracted therefrom and used for synthesis of cNDA by using a cDNA synthesis kit and PCR pre-mix.

The subject of assay [6] is human hair follicle germinal matrix cells. Description: PCR expression of MSX2 (activity of germinal matrix cells). Conditions: peptide 0.5 uM, 5 uM or 50 uM, 1 day, serum-free medium, FIG. 6. On the procedure: as §1, with “of germinal matrix” for “of hair follicle”, “human hair follicle” for “human”, “of EGF” for “of Minoxidil”, “of cNDA” for “of cDNA”, “PCR pre-mix.” for “PCR pre-mix (Intron, Korea).”

Assay [7] deals with human hair follicle outer root sheath cells. The assay can be described thus: PCR expression of HA3-II, Keratin 5, Keratin 14 and Keratin 19 (activity of outer root sheath cells). Particulars: peptide 0.5 uM, 5 uM or 50 uM, 1 day, serum-free medium, FIG. 7. The method, then:
as §1, with “follicle outer root sheath” for “follicle”, “human hair follicle outer root sheath” for “human dermal papilla”, “of EGF” for “of Minoxidil”, “of cNDA” for “of cDNA”, “PCR pre-mix. Then, PCR was performed by using the primer of GAPDH shown in Table 2 and primers of HA3-II, Keratin 5, Keratin 14, and Keratin […] shown in Table 6.” for “PCR pre-mix (Intron, Korea).”

As to TKVFPQD [SEQ ID NO: 1], the “movement of β-catenin from the cytoplasm to the nucleus” value in assay [1] is “increased”. For the same substance, in assay [2], the “expression of Cyclin D1” value is on record as “increased”, the “expression of Lef-1” value was “increased” and the “expression of c-Myc” value is reported as “increased”. In assay [3], the “expression of HGF” value is recorded as “increased”, the “expression of KGF” value is given as “increased”, the “expression of VEGF” value is listed as “increased” and the “expression of bFGF” value was “increased”. In addition, in assay [4], the “expression of Bax” value is “decreased”, the “expression of Bcl2 (anti-apoptosis-related protein)” value is listed as “increased”, the “expression of Cleaved Caspase-3” value is “decreased” and the “expression of Cleaved PARP-1” value is reported as “decreased”. Moreover, the “expression pathway of DKK-1” value in assay [5] is listed as “inhibit”. The “expression of MSX2” value in assay [6] is listed as “increase”. In addition, in assay [7], the “expression of HA3-II” value is on record as “increase”, the “expression of Keratin 5” value is listed as “increase”, the “expression of Keratin 14” value was “increase” and the “expression of Keratin 19” value is given as “increase”.

These data come from US20260258081A1, “PEPTIDE HAVING HAIR GROWTH PROMOTING ACTIVITY, AND USE THEREOF” (CAREGEN CO., LTD., priority 2019, published 2026).
